Test results reported in patent US9113629B2, “4-amino-6-(4-substituted-phenyl)-picolinates and 6-amino-2-(4-substituted-phenyl)-pyrimidine-4-carboxylates and their use as herbicides” (DOW AGROSCIENCES LLC, priority 2013, dated 2015).
Like-named read-outs stand apart in the source and are kept apart here.

Assays:
[1] = tested on: Key Broadleaf Weed and Crop Species; assay: Post-emergent Test II herbicidal activity (Table 5); assay type: in vivo; settings: post-emergence, 336 h, post-emergent, 14 days after application; for pest or weed control at 70 g/ha: 70 g ai/ha; for pest or weed control at 140 g/ha: 140 g ai/ha
Procedure, shortened: (§1)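 Spray rates: a highest rate plus ½×, ¼×, ⅛×, 1/16×, all delivered at 187 L/ha to plants at the first–second true leaf stage. Readout is a visual percent injury score at 14 d, where 100 means complete kill.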

[2] = tested on: Key Grass and Sedge Weeds as well as Grass Crops; assay: Post-emergent Test II herbicidal activity (Table 6); assay type: in vivo; settings: post-emergence, 336 h; for pest or weed control at 70 g/ha: application rate 70 g ai/ha; for pest or weed control at 140 g/ha: application rate 140 g ai/ha
Procedure, shortened: as §1

[3] = ABUTH: velvetleaf (Abutilon theophrasti), read-out: Visual Growth Reduction (%) 14 Days After Application ABUTH
[4] = AMARE: redroot pigweed (Amaranthus retroflexus), read-out: Visual Growth Reduction (%) 14 Days After Application AMARE
[5] = BRSNN: oilseed-rape, canola (Brassica napus), read-out: Visual Growth Reduction (%) 14 Days After Application BRSNN
[6] = CHEAL: lambsquarters (Chenopodium album), read-out: Visual Growth Reduction (%) 14 Days After Application CHEAL
[7] = EPHHL: wild poinsettia (Euphorbia heterophylla), read-out: Visual Growth Reduction (%) 14 Days After Application EPHHL
[8] = HELAN: sunflower (Helianthus annuus), read-out: Visual Growth Reduction (%) 14 Days After Application HELAN
[9] = VIOTR: wild pansy (Viola tricolor), read-out: Visual Growth Reduction (%) 14 Days After Application VIOTR
[10] = Triticum aestivum, TRZSS (wheat), read-out: Visual Growth Reduction (%) 14 Days After Application, TRZSS
[11] = CYPES: yellow nutsedge (Cyperus esculentus), read-out: Visual Growth Reduction (%) 14 Days After Application, CYPES
[12] = DIGSA: crabgrass (Digitaria sanguinalis), read-out: Visual Growth Reduction (%) 14 Days After Application, DIGSA
[13] = ECHCG: barnyardgrass (Echinochloa crus-galli), read-out: Visual Growth Reduction (%) 14 Days After Application, ECHCG
[14] = ORYSA: rice (Oryza sativa), read-out: Visual Growth Reduction (%) 14 Days After Application, ORYSA
[15] = SETFA: giant foxtail (Setaria faberi), read-out: Visual Growth Reduction (%) 14 Days After Application, SETFA
[16] = SORVU: grain sorghum (Sorghum vulgare), read-out: Visual Growth Reduction (%) 14 Days After Application, SORVU
[17] = ZEAMX: maize, corn (Zea mays), read-out: Visual Growth Reduction (%) 14 Days After Application, ZEAMX

Row | SMILES | pest or weed control at 70 g/ha [1, 3] | pest or weed control at 140 g/ha [1, 3] | pest or weed control at 70 g/ha [1, 4] | pest or weed control at 140 g/ha [1, 4] | pest or weed control at 70 g/ha [1, 5] | pest or weed control at 140 g/ha [1, 5] | pest or weed control at 70 g/ha [1, 6] | pest or weed control at 140 g/ha [1, 6] | pest or weed control at 70 g/ha [1, 7] | pest or weed control at 140 g/ha [1, 7] | pest or weed control at 70 g/ha [1, 8] | pest or weed control at 140 g/ha [1, 8] | pest or weed control at 70 g/ha [1, 9] | pest or weed control at 140 g/ha [1, 9] | pest or weed control at 70 g/ha [2, 10] | pest or weed control at 140 g/ha [2, 10] | pest or weed control at 70 g/ha [2, 11] | pest or weed control at 70 g/ha [2, 12] | pest or weed control at 140 g/ha [2, 12] | pest or weed control at 70 g/ha [2, 13] | also measured
1 | COC(=O)c1nc(-c2ccc(I)cc2F)cc(N)c1Cl [Compound 159] | 95 to 100% | 95 to 100% | 95 to 100% | 95 to 100% | 85 to 94% | 85 to 94% | 95 to 100% | 95 to 100% | 95 to 100% | 95 to 100% | 75 to 84% | 95 to 100% | 0 to 29% | 45 to 59% | 60 to 74% | 60 to 74% | 95 to 100% | 85 to 94% | 85 to 94% | 85 to 94% | pest or weed control at 140 g/ha [2, 11]: 95 to 100%; pest or weed control at 140 g/ha [2, 13]: 95 to 100%; pest or weed control at 70 g/ha [2, 14]: 0 to 29%; pest or weed control at 140 g/ha [2, 14]: 0 to 29%; pest or weed control at 70 g/ha [2, 15]: 75 to 84%; pest or weed control at 140 g/ha [2, 15]: 95 to 100%; pest or weed control at 70 g/ha [2, 16]: 95 to 100%; pest or weed control at 140 g/ha [2, 16]: 95 to 100%; pest or weed control at 70 g/ha [2, 17]: 60 to 74%; pest or weed control at 140 g/ha [2, 17]: 75 to 84%
2 | Cc1c(-c2ccc(C(F)(F)F)c(F)c2)nc(C(=O)O)c(Cl)c1N [Compound 161, 4-amino-3-chloro-6-(3-fluoro-4-(trifluoromethyl)phenyl)-5-methylpicolinic acid] | 75 to 84% | 85 to 94% | 45 to 59% | 95 to 100% | 95 to 100% | 95 to 100% | 95 to 100% | 95 to 100% | 0 to 29% | 0 to 29% | 95 to 100% | 95 to 100% | 0 to 29% | 0 to 29% | 60 to 74% | 60 to 74% | 95 to 100% | 30 to 44% | 45 to 59% | 45 to 59% | pest or weed control at 140 g/ha [2, 13]: 60 to 74%; pest or weed control at 70 g/ha [2, 14]: 0 to 29%; pest or weed control at 140 g/ha [2, 14]: 0 to 29%; pest or weed control at 70 g/ha [2, 15]: 85 to 94%; pest or weed control at 140 g/ha [2, 15]: 85 to 94%; pest or weed control at 70 g/ha [2, 16]: 0 to 29%; pest or weed control at 140 g/ha [2, 16]: 0 to 29%; pest or weed control at 70 g/ha [2, 17]: 60 to 74%; pest or weed control at 140 g/ha [2, 17]: 60 to 74%
